Values of other authors, collected in article PMC9516332 (Frontiers in Oncology, 2022).
Where two headings read alike, the source gives them in different places.

Columns and labels:
Details in all cases: cited from earlier work
[1] = target: panel of 255 wild-type kinases (Homo sapiens, UniProt P07332)
[2] = target: panel of 255 wild-type kinases (Homo sapiens, UniProt P17612)
[3] = target: T1, panel of 255 wild-type kinases (Homo sapiens, UniProt Q13043)
T1 sequence (Q13043 1-487): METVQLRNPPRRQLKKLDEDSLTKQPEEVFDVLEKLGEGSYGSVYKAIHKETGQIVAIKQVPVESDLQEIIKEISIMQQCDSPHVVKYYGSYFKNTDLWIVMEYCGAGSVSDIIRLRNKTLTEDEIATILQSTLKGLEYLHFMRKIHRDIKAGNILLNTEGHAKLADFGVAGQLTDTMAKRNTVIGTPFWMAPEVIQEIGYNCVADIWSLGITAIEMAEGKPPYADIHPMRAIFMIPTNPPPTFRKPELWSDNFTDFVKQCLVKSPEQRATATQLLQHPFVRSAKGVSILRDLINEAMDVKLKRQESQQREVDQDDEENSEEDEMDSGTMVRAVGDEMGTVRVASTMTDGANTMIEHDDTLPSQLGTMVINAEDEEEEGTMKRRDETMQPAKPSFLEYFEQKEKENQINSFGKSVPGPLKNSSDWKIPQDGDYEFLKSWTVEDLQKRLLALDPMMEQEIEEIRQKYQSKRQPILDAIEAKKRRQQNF

[4] = target: panel of 255 wild-type kinases (Homo sapiens, UniProt P23443)
[5] = target: T2, panel of 255 wild-type kinases (Homo sapiens, UniProt Q13188)
T2 sequence (Q13188 1-491): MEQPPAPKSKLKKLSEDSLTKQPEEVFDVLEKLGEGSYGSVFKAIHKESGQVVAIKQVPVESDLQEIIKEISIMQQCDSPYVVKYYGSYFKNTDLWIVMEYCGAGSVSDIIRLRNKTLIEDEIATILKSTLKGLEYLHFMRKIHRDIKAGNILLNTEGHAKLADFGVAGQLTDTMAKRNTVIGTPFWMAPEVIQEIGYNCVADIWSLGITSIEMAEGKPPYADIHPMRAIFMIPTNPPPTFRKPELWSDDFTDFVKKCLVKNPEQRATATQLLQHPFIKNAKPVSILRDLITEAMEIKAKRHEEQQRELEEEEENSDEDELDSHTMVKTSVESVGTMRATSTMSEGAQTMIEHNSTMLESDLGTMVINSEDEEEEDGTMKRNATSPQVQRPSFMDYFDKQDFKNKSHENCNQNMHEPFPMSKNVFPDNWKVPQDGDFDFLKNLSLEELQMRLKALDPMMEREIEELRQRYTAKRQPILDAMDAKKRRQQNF

[6] = target: panel of 255 wild-type kinases (Homo sapiens, UniProt Q08345)
[7] = target: T3, panel of 255 wild-type kinases (Homo sapiens, UniProt P36888)
T3 sequence (P36888 27-993): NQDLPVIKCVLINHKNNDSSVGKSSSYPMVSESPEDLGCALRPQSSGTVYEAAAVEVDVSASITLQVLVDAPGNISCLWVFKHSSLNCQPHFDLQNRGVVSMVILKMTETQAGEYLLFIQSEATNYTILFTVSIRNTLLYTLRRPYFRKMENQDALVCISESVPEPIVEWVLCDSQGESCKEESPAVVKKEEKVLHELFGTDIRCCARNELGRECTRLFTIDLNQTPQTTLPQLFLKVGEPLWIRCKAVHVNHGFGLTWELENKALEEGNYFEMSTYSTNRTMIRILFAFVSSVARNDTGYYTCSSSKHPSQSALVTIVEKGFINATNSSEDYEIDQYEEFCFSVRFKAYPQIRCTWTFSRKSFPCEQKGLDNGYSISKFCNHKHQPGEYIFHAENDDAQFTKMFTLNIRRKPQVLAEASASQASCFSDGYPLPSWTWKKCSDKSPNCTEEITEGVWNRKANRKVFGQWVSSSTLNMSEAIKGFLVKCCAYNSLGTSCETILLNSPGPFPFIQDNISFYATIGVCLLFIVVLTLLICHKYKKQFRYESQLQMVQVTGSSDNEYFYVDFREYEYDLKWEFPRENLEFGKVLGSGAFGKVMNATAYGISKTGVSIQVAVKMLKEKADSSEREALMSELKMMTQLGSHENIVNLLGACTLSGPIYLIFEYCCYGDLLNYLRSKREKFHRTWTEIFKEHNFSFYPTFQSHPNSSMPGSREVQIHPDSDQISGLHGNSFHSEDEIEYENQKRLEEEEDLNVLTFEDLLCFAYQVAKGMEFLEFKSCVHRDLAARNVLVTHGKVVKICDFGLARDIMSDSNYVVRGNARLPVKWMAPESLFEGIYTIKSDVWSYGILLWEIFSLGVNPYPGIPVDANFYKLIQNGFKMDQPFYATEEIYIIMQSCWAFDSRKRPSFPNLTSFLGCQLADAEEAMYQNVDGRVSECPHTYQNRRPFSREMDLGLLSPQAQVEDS

[8] = target: panel of 255 wild-type kinases (Homo sapiens, UniProt P00519)
[9] = kinase FES, 1 µmol/L single concentration, ref DOI: 10.1158/1535-7163.MCT-18-0877
[10] = kinase PKACα, 1 µmol/L single concentration, ref DOI: 10.1158/1535-7163.MCT-18-0877
[11] = MST1, 1 µmol/L single concentration, ref DOI: 10.1158/1535-7163.MCT-18-0877
[12] = p70S6K, 1 µmol/L single concentration, ref DOI: 10.1158/1535-7163.MCT-18-0877
[13] = MST2, 1 µmol/L single concentration, ref DOI: 10.1158/1535-7163.MCT-18-0877
[14] = kinase DDR1, 1 µmol/L single concentration, ref DOI: 10.1158/1535-7163.MCT-18-0877
[15] = kinase FLT3, 1 µmol/L single concentration, ref DOI: 10.1158/1535-7163.MCT-18-0877
[16] = ABL kinase assay, 1 µmol/L single concentration, ref DOI: 10.1158/1535-7163.MCT-18-0877
[17] = kinase PKACα, 1 µmol/L single concentration, ref DOI: 10.1371/journal.pone.0092146
[18] = MST1, 1 µmol/L single concentration, ref DOI: 10.1371/journal.pone.0092146
[19] = p70S6K, 1 µmol/L single concentration, ref DOI: 10.1371/journal.pone.0092146
[20] = MST2, 1 µmol/L single concentration, ref DOI: 10.1371/journal.pone.0092146
[21] = kinase DDR1, 1 µmol/L single concentration, ref DOI: 10.1371/journal.pone.0092146
[22] = kinase FES, 1 µmol/L single concentration, ref DOI: 10.1371/journal.pone.0092146
[23] = kinase FLT3, 1 µmol/L single concentration, ref DOI: 10.1371/journal.pone.0092146

SMILES | %-inhibition at 1 µmol/L, FES [1, 9] [%] | %-inhibition at 1 µmol/L, PKACα [2, 10] [%] | %-inhibition, MST1 [3, 11] [%] | %-inhibition, p70S6K [4, 12] [%] | %-inhibition, MST2 [5, 13] [%] | %-inhibition at 1 µmol/L, DDR1 [6, 14] [%] | %-inhibition at 1 µmol/L, FLT3 [7, 15] [%] | %-inhibition ABL [8, 16] [%] | also measured
CC#CC(=O)N1CCC[C@H]1c1nc(-c2ccc(C(=O)Nc3ccccn3)cc2)c2c(N)nccn12 [acalabrutinib] | -6.35 | -5 | 4 | -14 | -3.46 | 8 | 3.27 | -2.81 | –
CCc1cc2c(cc1N1CCC(N3CCOCC3)CC1)C(C)(C)c1[nH]c3cc(C#N)ccc3c1C2=O [alectinib] | 23 | 5 | 10 | 2.73 | -1.42 | 16 | 78 | 5 | –
COc1cc(N2CCC(N3CCN(C)CC3)CC2)ccc1Nc1ncc(Cl)c(Nc2ccccc2P(C)(C)=O)n1 [brigatinib] | – | – | – | – | – | – | – | – | %-inhibition at 1 µmol/L, FES [1]: 100%; %-inhibition at 1 µmol/L, PKACα [2]: 17%; %-inhibition, MST1 [3]: 71%; %-inhibition, p70S6K [4]: 33%; %-inhibition, MST2 [5]: 20%; %-inhibition at 1 µmol/L, DDR1 [6]: 84%; %-inhibition at 1 µmol/L, FLT3 [7]: 101%; %-inhibition ABL [8]: 54%
Cc1cc(Nc2ncc(Cl)c(Nc3ccccc3S(=O)(=O)C(C)C)n2)c(OC(C)C)cc1C1CCNCC1 [ceritinib] | 99 | -8 | 17 | 16 | 2.76 | 50 | – | -1.61 | –
O=C(c1ccc(F)c(F)c1Nc1ccc(I)cc1F)N1CC(O)([C@@H]2CCCCN2)C1 [cobimetinib] | 1.67 | -10 | -9 | 19 | 1.8 | 6.37 | -0.393 | -4 | –
C[C@@H](Oc1cc(-c2cnn(C3CCNCC3)c2)cnc1N)c1c(Cl)ccc(F)c1Cl [crizotinib] | – | – | – | – | – | – | – | – | %-inhibition at 1 µmol/L, PKACα [2, 17]: -6%; %-inhibition, MST1 [3, 18]: 83%; %-inhibition, p70S6K [4, 19]: 40%; %-inhibition, MST2 [5, 20]: 13%; %-inhibition at 1 µmol/L, DDR1 [6, 21]: 97%
CC(C)(C)c1nc(-c2cccc(NS(=O)(=O)c3c(F)cccc3F)c2F)c(-c2ccnc(N)n2)s1 [dabrafenib] | – | – | – | – | – | – | – | – | %-inhibition at 1 µmol/L, FES [1, 22]: 2.29%; %-inhibition at 1 µmol/L, DDR1 [6, 21]: 96%; %-inhibition at 1 µmol/L, FLT3 [7, 23]: 41%
C=CC(=O)N1CCC[C@@H](n2nc(-c3ccc(Oc4ccccc4)cc3)c3c(N)ncnc32)C1 [ibrutinib] | 0.681 | -11 | 4 | 19 | 17 | 37 | 63 | 8 | –
CO[C@@H]1[C@H](N(C)C(=O)c2ccccc2)C[C@H]2O[C@]1(C)n1c3ccccc3c3c4c(c5c6ccccc6n2c5c31)C(=O)NC4 [midostaurin] | 90 | 93 | – | 82 | 98 | 98 | – | 9 | –
C=CC(=O)Nc1cc(Nc2nccc(-c3cn(C)c4ccccc34)n2)c(OC)cc1N(C)CCN(C)C [osimertinib] | 42 | -11 | 1.52 | 21 | – | 46 | 84 | 4.62 | –
CC(=O)Nc1cccc(-n2c(=O)n(C3CC3)c(=O)c3c(Nc4ccc(I)cc4F)n(C)c(=O)c(C)c32)c1 [trametinib] | – | – | – | – | – | – | – | – | %-inhibition at 1 µmol/L, FES [1, 22]: -1.55%; %-inhibition at 1 µmol/L, PKACα [2, 17]: 8.52%; %-inhibition, MST1 [3, 18]: -3.74%; %-inhibition, p70S6K [4, 19]: -1.39%; %-inhibition, MST2 [5, 20]: -3%; %-inhibition at 1 µmol/L, FLT3 [7, 23]: 20%; %-inhibition ABL ([8]; ABL kinase assay, 1 µmol/L single concentration, ref DOI: 10.1371/journal.pone.0092146): -8%
